Where no end group is shown, it is not given here.
Assays:
[1] = assay type: in vitro ADME, human
Procedure: The metabolic stability was checked in human serum at 37 °C in presence and in absence of 1,10 phenanthroline monohydrate, a well-known metalloprotease inhibitor (Wijayanti et al. [2006]) at appropriate periods of time (0, 15, 30, 60 min). In two different tubes containing 200 μL of human serum plasma previously incubated at 37 °C was added 40 μL of ^67Ga-P04087 labelling solution. 4 μL of 1 mg/mL of 1,10 phenanthroline monohydrate in ethanol was added only in one of the two tubes. At 0, 15, 30 and 60 min, 20 μL aliquots were collected and proteins were precipitated with 200 μL of methanol. Samples were then filtered with 0.2 μm Whatman filter (13 mm) and the methanol was then evaporated with a stream of nitrogen. The resulting dry residue was dissolved in 200 μL water and then analyzed by C18-radio-HPLC using the equipment mentioned above.

[2] = system: phosphatidylserine in valve vegetations; assay: In vivo binding to PS in rat model of infective endocarditis (SPECT/CT, autoradiography); settings: intravenous injection, intense signal in the bladder
vegetations = vegetations of experimental endocarditis; ref Rouzet et al. [2008]; cited from earlier work
Source text: Otherwise, the presence of ^67Ga-P04087 uptake on autoradiography in contrast to the rapid degradation observed in vitro without the metalloprotease inhibitor, point out the discrepancies that could occur between in vitro and in vivo degradation even when low tracer amounts are used in vitro in order to avoid saturation of enzymes (García-Garayoa et al. [2001]). These positive autoradiography results extend the findings of histology experimentations on the binding of the agent to PS. However, comparatively to radiolabelled Annexin A5, the contrast was not sufficient to provide a detectable sig ...

[3] = compared with Ga-P04087; no reference given for the value; cited from earlier work
[4] = Peptide stability in Hank's medium with 10% foetal calf serum; assay type: in vitro ADME; settings: 37 °C; for Stability result: Hanks + 10% FCS, 2 h incubation, in darkness, triplicate, sampled at 0, 1 h, 2 h, TCA precipitation, LC/ES/MS; for Stability in Hanks media supplied or not with foetal calf serum: Hanks media with or without FCS, two hours
Procedure: A 100 μL solutions of R824 (PGDLSR), R825 (DAHSFS) and R826 (LIKKPF) in Hank’s medium and 10% FCS (foetal calf serum) were prepared and incubated (in triplicate) for 2 h at 37 °C and in complete darkness. At 0, 1 h and 2 h, 100 μL were sampled from each tube; 200 μL of 0.6 M trichloroacetic acid were added. The mixtures were then centrifuged at 20,000 g for 10 min at 4 °C. One microliter of each supernatant was then analyzed by LC/ES/MS.

Stability result [4]	Stability in Hanks media supplied or not with foetal calf serum [4]	Compound	further results
Stable	stable	PGDLSR [Peptide R824]	
Stable	stable	DAHSFS [Peptide R825]	

More lines, now with the values behind:

Compound	Stability result [4]	Stability in Hanks media supplied or not with foetal calf serum [4]	further results
CC(C)C[C@H](NC(=O)[C@H](CC(=O)O)NC(=O)CNC(=O)[C@@H]1CCCN1C(=O)CCNC(=O)CCC(C(=O)O)N1CCN(CC(=O)O)CCN(CC(=O)O)CC1)C(=O)N[C@@H](CO)C(=O)N[C@@H](CCCNC(=N)N)C(=O)O (some centres unmarked) [Peptide 67Ga-P04087, metal not drawn]			Radiochemical purity in human serum with 1,10 phenanthroline monohydrate [1]: 100%; Renal elimination on SPECT/CT [2]: rapid renal elimination
99mTc-AnnexinV: technetium 99m-labelled Annexin V, protein imaging agent targeting PS			uptake ratio for autoradiography (vegetations): 2; uptake ratio for in vivo acquisitions (vegetations): 1.3; affinity to PS [3]: 6*10^−9 M
LIKKPF [Peptide R826]	Total degradation 1 h after the start of incubation	quickly degraded	

Reference: PMC5835976, “Synthesis, gallium labelling and characterization of P04087, a functionalized phosphatidylserine-binding peptide” (EJNMMI Radiopharmacy and Chemistry, 2017)
